Measurements: US20070082073A1, “Catechin Adjuvants” (UNIVERSITY OF SOUTH FLORIDA, priority 2005, published 2007)

Legend:
[1] = system: doxorubicin resistance tumors; conditions: animal model; cited from earlier work
[2] = estimated/extrapolated EGCg plasma concentration after oral daily dose; type: in vivo, dogs
Protocol: Previous reports indicate in vivo therapeutic activity at a plasma concentration of 1 to 10 μM/L (Lambert & Yang, 2003). Swezey et. al (Swezey et al., 2003) studied the absorption, tissue distribution and elimination of 4-[^3H]-epigallocatechin gallate in beagle dogs and estimated that approximately 20% of the oral dose appears in plasma after one hour and a half life of approximately 8 h. Considering an underestimation of this value to be 50 μg/ml and the molecular weight of EGCg of […] a daily dose of 250 mg/kg/day would result in a plasma concentration of approximately 100 μM/L. The doses proposed herein would result in an extrapolated value of more than […] in plasma.

[3] = beagle dogs, cited from earlier work
[4] = system: opportunistic microbial infections; assay: opportunistic microbial infections in canines treated with antimetabolites for lymphoma; type: in vivo
From the text: There is a wide commercial need for inexpensive small molecular weight immunoenhancing drugs to enhance the immune response of individuals treated with antimetabolite anti-cancer drugs, which are immunosuppressive. We are using as the preclinical prototype pet canines treated for lymphoma, one of the most common cancers of dogs as well as humans.

Question: Which “effect on doxorubicin resistance tumors” value [1] does the source give for O=C(O[C@@H]1Cc2c(O)cc(O)cc2O[C@@H]1c1cc(O)c(O)c(O)c1)c1cc(O)c(O)c(O)c1 [EGCg, epigallocatechin gallate] here?
Answer: revert doxorubicin resistance tumors

Question: What about the plasma concentration ([2]; daily dose of 250 mg/kg/day) of the same compound?
Answer: approximately 100 μM/L

Question: What about the “plasma value, considered an underestimation” value ([2]; daily dose of 250 mg/kg/day) of the same compound?
Answer: 50 µg/mL

Question: And the “extrapolated value in plasma” value ([2]; the doses proposed herein (6-60 mg/kg/day EGCg, oral))?
Answer: more than 11 M/L

Question: For [3H]C1c2c(O)cc(O)cc2OC(c2cc(O)c(O)c(O)c2)C1OC(=O)c1cc(O)c(O)c(O)c1 (stereo not shown) [4-[^3H]-epigallocatechin gallate], which “oral dose that appears in plasma” value ([3]; after one hour) is on record?
Answer: approximately 20%

Question: What about the half life ([3]; oral dose) of the same compound?
Answer: approximately 8 h

Question: For COc1cccc2c1C(=O)c1c(O)c3c(c(O)c1C2=O)C[C@@](O)(C(=O)CO)C[C@@H]3O[C@H]1C[C@H](N)[C@H](O)[C@H](C)O1 [adriamycin], which “incidence of opportunistic microbial infections” value [4] is on record?
Answer: increased incidence of opportunistic microbial infections
